Paper PMC9203742 (Nature Communications, 2022)
pEC50: −log10 of the molar value. Values joined by “and” are separate entries in the source; they are usually repeats but may differ in a detail not shown here. Equal entries are not always repeated.

How the values were obtained:
[1] = system: Purkinje cells in cerebellar slices from mGlu1^CBC/CBC mice; experiment: chemLTD recording (PF-EPSC) in Purkinje cells of acute cerebellar slices, mGlu1^CBC/CBC mice; type: cell-based, mouse; conditions: for PF-EPSC amplitude relative to time 0: mGlu1CBC/CBC, individual cells
Description: (§1) Sagittal cerebellar slices were cut with a microslicer (Linear slicer Pro7; DOSAKA EM) in cutting solution buffer and then incubated in ACSF gassed with 5% CO2 and 95% O2 at room temperature.
(§2) Whole-cell patch-clamp recordings were made from visually identified Purkinje cells using a 60× water-immersion objective attached to an upright microscope (BX51WI, Olympus) at room temperature, as described previously. […] Picrotoxin (100 µM; Sigma) was always added to the saline to block inhibitory synaptic transmission.
(§3) To evoke EPSCs derived from CF (CF-EPSCs) and PF (PF-EPSCs) inputs onto Purkinje cells, square pulses were applied through a stimulating electrode placed on the granular layer and the molecular layer (50 µm away from the pial surface), respectively. The selective stimulation of CFs and PFs was confirmed by the paired-pulse depression (PPD) and paired-pulse facilitation (PPF) of EPSC amplitudes at a 50-ms interstimulus interval (ISI), respectively.
(§4) For the LTD sessions, PF-EPSCs were recorded successively at a frequency of 0.1 Hz from Purkinje cells clamped at –80 mV. After a stable PF-EPSC amplitude had been observed for at least 5 min, a conjunctive stimulation that consisted of 30 single PF stimuli together with a 200 ms depolarizing pulse from a holding potential of –60 to +20 mV was applied for LTD induction.
(§5) To chemically induce LTD (chemLTD), 50 µM (S)-3,5-dihydroxyphenylglycine (DHPG) or 1 µM Pd(sulfo-bpy) was applied for 10 min in a current-clamp mode. We often observed a transient decrease in PF-EPSC amplitude after the application of each drug probably because Purkinje cells under current-clamp conditions excite spontaneously to suppress presynaptic function through the retrograde signaling. Access resistances were monitored every 10 s by measuring the peak currents in response to 2 mV, 50-ms hyperpolarizing steps throughout the experiments; the measurements were discarded if the resistance changed by >20% of its original value. The normalized EPSC amplitude on the ordinate represents the EPSC amplitude for the average of six traces for 1 min divided by that of the average of six traces for 1 min immediately before the conjunctive stimulation or the drug application.

[2] = system: Purkinje cells in cerebellar slices from mGlu1^CBC/+ mice; experiment: chemLTD recording (PF-EPSC) in Purkinje cells of acute cerebellar slices, mGlu1^CBC/+ mice; type: cell-based, mouse; conditions: for PF-EPSC amplitude relative to time 0: mGlu1CBC/+, individual cells
Description: as §1, §2, §3, §4, §5

[3] = system: Purkinje cells in cerebellar slices from mGlu1^+/+ mice; experiment: chemLTD recording (PF-EPSC) in Purkinje cells of acute cerebellar slices, mGlu1^+/+ mice; type: cell-based, mouse; conditions: for PF-EPSC amplitude relative to time 0: mGlu1+/+, individual cells
Description: as §1, §2, §3, §4, §5

[4] = system: MLIs infected with AAV-hSyn-mGlu1^CBC; experiment: sAP-mediated currents (firing rate) of MLIs infected with AAV-hSyn-mGlu1^CBC; type: cell-based, mouse; conditions: 10 μM Pd(sulfo-bpy); P = 4.613 × 10^–5
Description: To monitor the excitability of MLIs, sAP-mediated current responses were extracellulary recorded by a loose cell-attached voltage-clamp at a holding potential of 0 mV. Glass electrodes used for cell-attached recordings had resistances of 3–5 MΩ when filled with ACSF. The current recordings from AAV-infected cells were performed 1−2 weeks after infection. The EPSCs and sAP-mediated currents were recorded using an Axopatch 200B amplifier (Molecular Devices), and the pClamp system (version 9.2; Molecular Devices) was used for data acquisition and analysis. The signals were filtered at 1 kHz and digitized at 4 kHz for the evoked EPSCs and 10 kHz for the sAP-mediated currents.
Injection of viral solutions was performed as described previously with slight modifications. Briefly, under deep anesthesia, with an intraperitoneal injection of medetomidine (0.3 mg/kg), midazolam (4.0 mg/kg), and butorphanol (5.0 mg/kg), 4 µL of the solutions containing AAV mixture were directly injected into the vermis of cerebellar lobules V-VIII (200-300 µm in depth, 12 µL/h in rate) of WT mice (C57BL/6J, P20-P30) using glass pipette (30–40 µm in diameter) and microinjector (Nanoliter; World Precision Instruments). In all, 1−2 week after injection, the mice were used for each experiment.

[5] = Solubility of Pd complexes in ACSF by UV-vis spectroscopy; conditions: 1 h at 4 °C
mGlu1(N264H) mutant = target: T1, mGlu1(N264H) mutant (Rattus norvegicus, UniProt P23385, N264H); experiment: Fura-2 Ca2+ imaging in HEK293 cells expressing mGlu1(N264H); type: cell-based
T1 construct: expressed in transfected cells; host or cells: HEK293
T1 sequence (P23385 19-1199 N264H): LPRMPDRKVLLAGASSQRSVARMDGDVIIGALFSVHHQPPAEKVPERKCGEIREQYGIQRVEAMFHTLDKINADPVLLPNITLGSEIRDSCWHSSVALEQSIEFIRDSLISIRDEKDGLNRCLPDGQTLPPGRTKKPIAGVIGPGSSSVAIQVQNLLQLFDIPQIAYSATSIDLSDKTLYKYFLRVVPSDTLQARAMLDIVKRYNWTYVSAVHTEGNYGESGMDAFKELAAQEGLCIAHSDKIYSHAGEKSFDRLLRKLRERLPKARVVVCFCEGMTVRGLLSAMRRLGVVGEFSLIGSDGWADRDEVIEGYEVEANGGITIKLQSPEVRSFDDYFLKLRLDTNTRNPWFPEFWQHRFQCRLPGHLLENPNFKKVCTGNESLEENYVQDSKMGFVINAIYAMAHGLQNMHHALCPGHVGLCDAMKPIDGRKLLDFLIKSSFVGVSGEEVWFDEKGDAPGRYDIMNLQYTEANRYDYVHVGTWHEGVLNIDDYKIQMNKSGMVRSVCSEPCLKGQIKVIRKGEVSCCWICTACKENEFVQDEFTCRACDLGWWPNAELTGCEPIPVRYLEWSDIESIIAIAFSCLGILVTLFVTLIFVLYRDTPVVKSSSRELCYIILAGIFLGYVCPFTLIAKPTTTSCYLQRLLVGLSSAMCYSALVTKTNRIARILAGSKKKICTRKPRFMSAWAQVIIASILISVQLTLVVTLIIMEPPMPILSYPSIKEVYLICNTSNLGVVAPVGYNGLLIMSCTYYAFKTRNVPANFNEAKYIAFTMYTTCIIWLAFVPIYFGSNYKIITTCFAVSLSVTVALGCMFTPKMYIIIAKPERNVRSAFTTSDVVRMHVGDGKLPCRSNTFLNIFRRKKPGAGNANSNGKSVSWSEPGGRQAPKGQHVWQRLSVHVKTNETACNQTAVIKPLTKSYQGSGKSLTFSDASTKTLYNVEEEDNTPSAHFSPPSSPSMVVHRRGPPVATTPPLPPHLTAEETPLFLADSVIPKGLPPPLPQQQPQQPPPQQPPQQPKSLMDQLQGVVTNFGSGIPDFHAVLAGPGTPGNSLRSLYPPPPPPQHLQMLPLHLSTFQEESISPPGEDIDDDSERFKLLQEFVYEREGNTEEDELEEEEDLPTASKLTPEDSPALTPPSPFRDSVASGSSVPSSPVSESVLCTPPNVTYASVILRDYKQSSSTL

[6] = 1 μM Pd(sulfo-bpy) for 10 min, t = 31−35 min

## Cc1ccnc(-c2cc(COCCCS(=O)(=O)[O-])ccn2)c1.[Cl][Pd][Cl].[Na+] [Pd(sulfo-bpy)]
[1]; [6]
  chemLTD: normalized PF-EPSC amplitude: 71 ± 5%
[1]; time 11 min
  PF-EPSC amplitude relative to time 0: 0.6364 and 0.5841 and 0.6893 and 0.9073 and 0.8328 and 0.7699 and 0.718 and 0.7562 and 0.9988 and 0.8349 and 0.5757
[1]; time 12 min
  PF-EPSC amplitude relative to time 0: 0.827 and 0.5867 and 0.7148 and 0.9371 and 0.7788 and 0.6794 and 0.7449 and 0.7226 and 1.01 and 0.7931 and 0.6087
[1]; time 13 min
  PF-EPSC amplitude relative to time 0: 0.8172 and 0.6851 and 0.7171 and 1.091 and 0.7809 and 0.6502 and 0.6746 and 0.5919 and 1.019 and 0.8421 and 0.5537
[1]; time 14 min
  PF-EPSC amplitude relative to time 0: 0.7882 and 0.6733 and 0.6788 and 1.041 and 0.7381 and 0.6557 and 0.5543 and 0.7541 and 0.9808 and 0.752 and 0.5358
[1]; time 15 min
  PF-EPSC amplitude relative to time 0: 0.7548 and 0.7484 and 0.6382 and 0.9601 and 0.7893 and 0.6974 and 0.5323 and 0.7206 and 0.9958 and 0.7333 and 0.563
[1]; time 16 min
  PF-EPSC amplitude relative to time 0: 0.7642 and 0.6145 and 0.7007 and 0.8597 and 0.792 and 0.6967 and 0.6481 and 0.669 and 0.9606 and 0.6776 and 0.562
[1]; time 17 min
  PF-EPSC amplitude relative to time 0: 0.7633 and 0.6552 and 0.685 and 0.991 and 0.7793 and 0.8388 and 0.6612 and 0.7158 and 1.026 and 0.669 and 0.5661
[1]; time 18 min
  PF-EPSC amplitude relative to time 0: 0.7518 and 0.6433 and 0.6556 and 0.9807 and 0.8623 and 0.726 and 0.6303 and 0.6396 and 0.9248 and 0.6931 and 0.5685
[1]; time 19 min
  PF-EPSC amplitude relative to time 0: 0.7866 and 0.7223 and 0.6298 and 1.039 and 0.7923 and 0.7732 and 0.6413 and 0.6754 and 1.015 and 0.7024 and 0.4513
[1]; time 20 min
  PF-EPSC amplitude relative to time 0: 0.7361
[2]; [6]
  chemLTD: normalized PF-EPSC amplitude: 68 ± 5%
[2]; time 11 min
  PF-EPSC amplitude relative to time 0: 0.4686 and 0.63 and 0.9877 and 0.796 and 0.8663 and 0.8992 and 0.747 and 0.5935
[2]; time 12 min
  PF-EPSC amplitude relative to time 0: 0.5628 and 0.6446 and 0.9391 and 0.713 and 0.7198 and 0.9003 and 0.6921 and 0.7152
[2]; time 13 min
  PF-EPSC amplitude relative to time 0: 0.621 and 0.6377 and 0.8863 and 0.7092 and 0.7439 and 0.8712 and 0.699 and 0.7447
[2]; time 14 min
  PF-EPSC amplitude relative to time 0: 0.6095 and 0.6409 and 0.8383 and 0.7009 and 0.7151 and 0.836 and 0.6833 and 0.8191
[2]; time 15 min
  PF-EPSC amplitude relative to time 0: 0.6012 and 0.6741 and 0.9189 and 0.6721 and 0.6888 and 0.8836 and 0.7293 and 0.8645
[2]; time 16 min
  PF-EPSC amplitude relative to time 0: 0.5331 and 0.6806 and 0.916 and 0.7015 and 0.697 and 0.7978 and 0.7054 and 0.8737
[2]; time 17 min
  PF-EPSC amplitude relative to time 0: 0.5491 and 0.6542 and 0.8424 and 0.6962 and 0.6712 and 0.7371 and 0.6859 and 0.9232
[2]; time 18 min
  PF-EPSC amplitude relative to time 0: 0.5728 and 0.6898 and 0.851 and 0.7066 and 0.6167 and 0.9345 and 0.6617 and 0.9653
[2]; time 19 min
  PF-EPSC amplitude relative to time 0: 0.6147 and 0.6344 and 0.8403 and 0.7161 and 0.6281 and 0.877 and 0.663 and 0.9646
[2]; time 20 min
  PF-EPSC amplitude relative to time 0: 0.6536 and 0.6214 and 0.844 and 0.7068 and 0.6666 and 0.8676 and 0.6507 and 0.862
[2]; time 21 min
  PF-EPSC amplitude relative to time 0: 0.6234 and 0.6163 and 0.8161 and 0.7457 and 0.6988 and 0.7776 and 0.5996 and 0.8293
[2]; time 22 min
  PF-EPSC amplitude relative to time 0: 0.6625 and 0.6523 and 0.8492 and 0.7192 and 0.6537 and 0.814 and 0.6019 and 0.7969
[2]; time 23 min
  PF-EPSC amplitude relative to time 0: 0.703 and 0.6662 and 0.865 and 0.711
[3]; [6]
  chemLTD: normalized PF-EPSC amplitude: 99 ± 4%
[3]; time 11 min
  PF-EPSC amplitude relative to time 0: 1.305 and 0.7371 and 0.3878 and 0.9487 and 0.6362 and 1.191 and 0.6572 and 0.79
[3]; time 12 min
  PF-EPSC amplitude relative to time 0: 1.203 and 0.9018 and 0.4484 and 1.074 and 0.6455 and 1.19 and 0.9598 and 0.8251
[3]; time 13 min
  PF-EPSC amplitude relative to time 0: 1.075 and 1.089 and 0.5282 and 1.162 and 0.6836 and 1.016 and 0.9614 and 0.7972
[3]; time 14 min
  PF-EPSC amplitude relative to time 0: 1.127 and 1.131 and 0.639 and 1.08 and 0.8118 and 0.8848 and 0.8669 and 0.886
[3]; time 15 min
  PF-EPSC amplitude relative to time 0: 0.8966 and 0.8928 and 0.5282 and 1.038 and 0.8059 and 0.9429 and 0.8907 and 0.8537
[3]; time 16 min
  PF-EPSC amplitude relative to time 0: 1.016 and 0.9829 and 0.5855 and 1.115 and 0.7312 and 0.9396 and 0.9005 and 0.8573
[3]; time 17 min
  PF-EPSC amplitude relative to time 0: 1.118 and 0.828 and 0.627 and 1.083 and 0.6712 and 0.9977 and 1.081 and 0.8535
[3]; time 18 min
  PF-EPSC amplitude relative to time 0: 1.106 and 0.9208 and 0.5918 and 1.166 and 0.7081 and 1.026 and 1.038 and 0.9503
[3]; time 19 min
  PF-EPSC amplitude relative to time 0: 1.038 and 0.7989 and 0.7251 and 1.08 and 0.721 and 0.8774 and 0.9331 and 0.9414
[3]; time 20 min
  PF-EPSC amplitude relative to time 0: 1.053 and 0.8133 and 0.2871 and 1.2251 and 0.7983 and 1.16 and 1.101 and 0.9444
[3]; time 21 min
  PF-EPSC amplitude relative to time 0: 1.169 and 0.7496 and 1.002 and 1.096 and 0.7681 and 0.9902 and 1.174 and 0.9728
[3]; time 22 min
  PF-EPSC amplitude relative to time 0: 1.26 and 0.9695 and 1.072 and 1.131 and 0.7557 and 1.075 and 1.029 and 0.936
[3]; time 23 min
  PF-EPSC amplitude relative to time 0: 1.263 and 0.7868 and 0.9511 and 1.11
[4]
  Firing rate of MLIs: increased the firing rate
[5]
  Solubility: concentration over which linearity of absorbance at 312 nm is observed: over 1 mM
mGlu1(N264H) mutant; 0.01 µM Pd complex
  Ca2+ response, concentration dependence (Fig.4f): 0.001442
mGlu1(N264H) mutant; 0.03 µM Pd complex
  Ca2+ response, concentration dependence (Fig.4f): -0.01191
mGlu1(N264H) mutant; 0.1 µM Pd complex
  Ca2+ response, concentration dependence (Fig.4f): -0.00118
mGlu1(N264H) mutant; 0.3 µM Pd complex
  Ca2+ response, concentration dependence (Fig.4f): 0.1279
mGlu1(N264H) mutant; 1 µM Pd complex
  Ca2+ response, concentration dependence (Fig.4f): 0.241
mGlu1(N264H) mutant; 3 µM Pd complex
  Ca2+ response, concentration dependence (Fig.4f): 0.3078
mGlu1(N264H) mutant; 3 μM Pd(bpy) derivative
  Receptor activation (Ca2+ response, Δratio): successfully activated
mGlu1(N264H) mutant; 10 µM Pd complex
  Ca2+ response, concentration dependence (Fig.4f): 0.4466
mGlu1(N264H) mutant; 30 µM Pd complex
  Ca2+ response, concentration dependence (Fig.4f): 0.3481
mGlu1(N264H) mutant; HEK293 cells, Fura-2, read-out: EC50, Ca2+ response (Δratio)
  pEC50: 6.21
mGlu1(N264H) mutant; single-cell values
  Ca2+ response to Pd complex, individual cells #1-#20 (Fig.4e): 0.8899 and 0.2578 and 0.9132 and -0.001662 and 0.6326 and 0.4158 and 0.6574 and 1.139 and -0.004669 and -0.01576 and 0.5967 and 0.1275 and -0.001162 and 0.09754 and -0.01851 and 1.312 and 1.093 and 0.7225 and 0.4683 and -0.003462
